How the values were obtained:
Assay type in all cases: cell-based
human islets [1] = experiment: Insulin release and content of human islets
Protocol: Islet isolation and culture. Islets were isolated from pancreases of eleven organ donors at the Department of Surgery, University of Geneva Medical Center, as described (32-34). The islet purity was >95%, as judged by dithizone staining (if this degree of purity was not primarily achieved by routine isolation, islets were handpicked). […] For long-term in vitro studies, the islets were cultured on extracellular matrix-coated plates derived from bovine corneal endothelial cells (Novamed Ltd., Jerusalem, Israel), allowing the cells to attach to the dishes and spread, preserving their functional integrity (7;35). Islets were cultured in CMRL 1066 medium containing 100 U/ml penicillin, 100 μg/ml streptomycin and 10% fetal calf serum (Gibco, Gaithersburg, Md.), hereinafter referred to as culture medium. Two days after plating, when most islets were attached and began to flatten, the medium was changed to culture medium containing 5.5, 11.1 or 33.3 mM glucose. In some experiments, islets were additionally cultured with 2 ng/ml recombinant human IL-1β, 1000 U/ml recombinant human IFNγ (ReproTech EC Ltd, London, UK), 500 ng/ml IL-1β receptor antagonist (IL-1Ra) (R&D Systems Inc., Minneapolis, Minn.), 1 ng/ml membrane bound Fas-ligand (FasL) (36) (upstate biotechnology, Lake Placid, N.Y.) or with 100 μM pyrrolidinedithiocarbamate (PDTC; Sigma; 2 h per 2 d of culture).
Insulin release and content. To determine acute insulin release in response to glucose stimulation, islets were washed in RPMI 1640 medium with 10% FCS and containing 3.3 mM glucose and pre-incubated for 1 h in the same medium. The medium was then discarded and replaced with fresh medium containing 3.3 mM glucose for 1 h for basal secretion, followed by an additional 1 h incubation in medium containing 16.7 mM glucose. Incubates were collected and frozen for insulin assays. […] Insulin was determined by a human insulin RIA kit (CIS bio international, Gif-Sur-Yvette, France).

human islets [2] = experiment: Insulin release and content of human islets, leptin/siRNA study
Protocol: (§1) Islet isolation and cell culture. Islets were isolated from pancreases of ten organ donors at the Department of Surgery, University of Geneva Medical Center, as described (32-34). The islet purity was >95%, as judged by dithizone staining (if this degree of purity was not primarily achieved by routine isolation, islets were handpicked). […] For long-term in vitro studies, the islets were cultured on extracellular matrix-coated plates derived from bovine corneal endothelial cells (Novamed Ltd., Jerusalem, Israel), allowing the cells to attach to the dishes and spread, preserving their functional integrity (7;35). Islets were cultured in CMRL 1066 medium containing 100 U/ml penicillin, 100 μg/ml streptomycin and 10% fetal calf serum (Invitrogen Corporation, Paisley, U.K.), hereafter referred to as culture medium. Two days after plating, when most islets were attached and began to flatten, the medium was changed to culture medium containing 5.5, 11.1 or 33.3 mM glucose. In some experiments, islets were additionally cultured with 5, 10 or 500 nM rh leptin (PeproTech, London, UK), 500 ng/ml rh IL-1Ra (R&D Systems Inc., Minneapolis, Minn.) or 50 nM small interfering RNA (siRNA) as described below.
(§2) RNA interference. RNAs of 21 nucleotides, designed to target human IL-1Ra (5′AUCUGCAGAGGCCUCCGCAtt3′/5′UGCGGAGGCCUCUGCAGAUtt3′) and scrambled siRNA were synthesized by Ambion (Austin, Tex.). siRNAs were transfected using SiPortAmine™ according to the manufacturer's instructions (Ambion).
Insulin release and content. To determine acute insulin release in response to glucose stimulation, islets were washed in Kreb's ringer bicarbonate buffer (KRB-Hepes, pH 7.4: 4.8 mM KCl, 134 mM NaCl, 5 mM NaHCO3, 1.2 mM MgSO4, 1.2 mM KH2PO4, 1 mM CaCl2, 0.5% BSA, 10 mM HEPES) containing 3.3 mM glucose and pre-incubated for 30 min in the same buffer. The KRB was then discarded and replaced by fresh buffer containing 3.3 mM glucose for 1 h for basal secretion, followed by an additional 1 h of incubation in KRB containing 16.7 mM glucose. Supernatants were collected and frozen for insulin assays. Thereafter, islets were washed with PBS and extracted with 0.18 N HCl in 70% ethanol for 24 h at 4° C. The acid-ethanol extracts were collected for determination of insulin content. Insulin was determined by a human insulin RIA kit (CIS bio international, Gif-Sur-Yvette, France).

human islets β-cells = experiment: β-cell apoptosis (TUNEL, caspase 3 activation) in human islets, leptin/siRNA study; details: for cleaved caspase 3 level: leptin
Protocol: as §1, §2
Western blot analysis. Human islets were maintained in culture medium in nonadherent plastic dishes. One day after isolation, the medium was changed and groups of 200 islets were incubated in culture medium containing 5.5 glucose with or without 10 or 500 nM leptin or 50 nM siRNA. At the end of the incubations, islets were washed in PBS, suspended in 40 μl sample buffer containing 125 mM Tris-HCl (pH 6.8), 4% SDS, 10% glycerol, 0.3% bromphenol blue, 1.8% β-mercaptoethanol and boiled for 5 min. Equivalent amounts of each treatment group were run on 15% SDS polyacrylamide gels. Proteins were electrically transferred to nitrocellulose filters and incubated with biotinylated goat anti-IL-1Ra, mouse anti-caspase 3 (which binds to both, procaspase-3 and activated caspase-3; Pharmingen, San Diego, Calif.), or mouse anti-actin (C-2; Santa Cruz Biotechnology Inc., Santa Cruz, Calif.) antibodies, followed by incubation with horseradish-peroxidase-linked anti-mouse (Santa Cruz Biotechnology Inc.) or streptavidin (Jackson). The emitted light was captured on X-ray film after adding Lumi-Light Western Blotting Substrate (Roche, Basel, Switzerland). As a marker, Kaleidoscope Prestained Standards (Bio Rad, Laboratories inc., Hercules, Calif.) was run in parallel. Between incubations, nitrocellulose membranes were stripped for 30 min at 50° C. in 40 ml of a solution containing 280 μl β-mercaptoethanol, 5 ml 0.5 M Tris-HCl (pH 6.8) and 10% SDS, and then washed for 1 h in Tris-buffered saline containing 0.10/0 Tween-20.
β-cell apoptosis. The free 3′-OH strand breaks resulting from DNA degradation were detected using the terminal deoxynucleotidyl transferase-mediated dUTP nick-end labeling (TUNEL) technique as described in detail (70;76;77). Thereafter, islets were incubated with guinea pig anti-insulin antibody as above, followed by detection using the streptavidin-biotin-peroxidase complex (Zymed Laboratories Inc., South San Francisco, Calif., USA). In parallel to the TUNEL reaction, apoptosis was confirmed by detection of caspase 3 activation as described above (Western blot analysis).

[3] = leptin plus exogenous rh IL-1Ra 500 ng/ml
[4] = plus 500 ng/ml exogenous rhIL-1Ra

| Substance | acute glucose-stimulated insulin release, co-incubation (human islets [1]; 33.3 mM glucose or IL-1β for 4 days plus IL-1Ra or PDTC) | insulin content of islets (human islets [1]; high glucose with IL-1Ra, 4 days) | β-cell function and insulin content (human islets [2]; [3]) | loss of acute glucose-stimulated insulin release by high glucose and/or siIL-1Ra (human islets [2]; plus exogenous rh IL-1Ra) | insulin content (human islets [2]; siIL-1Ra and/or high glucose plus rh IL-1Ra) | glucose stimulation of insulin release (human islets [2]; siIL-1Ra at 5.5 mM glucose, co-incubation with exogenous rh IL-1Ra) | leptin-induced β-cell apoptosis (human islets β-cells; [3]) | β-cell apoptosis induced by 33.3 mM glucose alone (human islets β-cells; [4]) | β-cell apoptosis induced by 33.3 mM glucose and siIL-1Ra (human islets β-cells; [4]) | siIL-1Ra-induced DNA fragmentation (human islets β-cells; siIL-1Ra plus 500 ng/ml exogenous rhIL-1Ra) | decrease of chronic insulin secretion during the culture period (human islets [2]; leptin, 4 days) [%] | glucose-stimulated insulin secretion (human islets [2]; leptin, 4 days, 5.5 mM glucose) | insulin content (human islets [2]; leptin, 4 days, 5.5 mM glucose) | number of TUNEL-positive β-cells (human islets β-cells; 10 nM leptin, 4 days) | 33.3 mM glucose-induced apoptosis (human islets β-cells; leptin plus 33.3 mM glucose, 4 days) | cleaved caspase 3 level (human islets β-cells; 15 hours) | cleaved caspase 3 level (human islets β-cells; 48 hours) |
| --- | --- | --- | --- | --- | --- | --- | --- | --- | --- | --- | --- | --- | --- | --- | --- | --- | --- |
| Interleukin 1 receptor antagonist [IL-1Ra] | partially restored such glucose stimulation | remained unaffected | restored β-cell function and insulin content | partially prevented those effects | partially restored | restored glucose stimulation | prevented leptin-induced β-cell apoptosis | protected the β-cells from apoptosis | partially | prevented the effect of siIL-1Ra on DNA fragmentation |  |  |  |  |  |  |  |
| leptin: rh leptin (PeproTech); protein encoded by the ob gene |  |  |  |  |  |  |  |  |  |  | 41.65 | impaired glucose-stimulated insulin secretion | decreased insulin content | increased the number of TUNEL-positive β-cells | enhanced 33.3 mM glucose-induced apoptosis | did not change baseline cleaved caspase 3 level | an increase became apparent |

Reference: patent US7572770B2, “Use of an interleukin 1 receptor antagonist and/or pyrrolidinedithiocarbamate for the treatment or prophylaxis of type 2 diabetes” (University of Zurich, priority 2002, dated 2009)
